Laboratory results: patent publication US11304958B2, “Multidentate phenanthridine-containing ligand frameworks and their planar monofunctional platinum complexes for cancer treatment” (UNIVERSITY OF MANITOBA, priority 2018, dated 2022)
Read-outs that look alike come from different tables or passages of the source.

What was measured:
[1] = test system: A2780 (cisplatin sensitive) ovarian cancer cell line; assay: MTT cytotoxicity assay, A2780 ovarian cancer cells; type: cell-based, human; conditions: for IC50: 72 h; for in vitro cytotoxic activity in the absence of platinum(II): A2780 and A2780cis cell lines
Text: (§1) In addition, neither the 4-aminophenanthridine precursors nor the proligands L1 or L2 themselves are effective in the absence of platinum(II). As noted above, intercalation enhances covalent binding and ultimately boosts the number of complex-DNA adducts observed for phenanthriplatin, but only when these two processes are simultaneous (30). Phenanthridines in general are anticipated to interact with DNA via an intercalation mechanism, similar to the mechanism of operation of the DNA stain ethidium bromide, of which phenanthridine forms the molecular core (19). […] The differing profile compared to cisplatin (i.e., higher in vitro efficacy and lower cross-resistance) implies a different mechanism of operation from cisplatin, which, considering to the planar structure of 1 and 2 compared to phenanthriplatin (10) likely involves some degree of intercalation. The higher efficacy for 2 (R═CF3) vs 1 (R=tBu) highlights the opportunity to fine-tune biological activity via ligand backbone substitution.
(§2) In addition, neither the phenanthridinyl amines (2-R) nor the ligand itself (L2) are effective in the absence of platinum(II). While not wishing to be bound or limited to a particular theory or hypothesis, it is believed that substituted phenanthridines interact with DNA via an intercalation mechanism, similar to the mechanism of operation of the DNA stain ethidium bromide (19). […] The differing profile compared to cisplatin (i.e., higher in vitro efficacy and lower cross-resistance) implies a different mechanism of operation from cisplatin, which, considering to the planar structure of NNOPt compared to phenanthriplatin (10) likely involves some degree of intercalation. The higher efficacy for 2 (R═CF3) vs 1 (R=tBu) highlights the opportunity to fine-tune biological activity via ligand backbone substitution.
(§3) Cell line: A2780 (ovarian cells), A2780cis (ovarian cells, drug resistant)
(§4) RPMI medium: 10% FBS, 1% PS, 89% RPMI 1×, with L-glutamine
(§5) MTT (5 mg/MI Thiazolyl Blue tetrazolium bromide in PBS)
(§6) A volume of 100 μL of RPMI medium (10% FBS, 1% PS, 89% RPMI 1×, with L-glutamine) containing 2000 cells was seeded in each well of a 96-well microplate, and incubated for 24 h at 37° C. under 5% CO2. After 24 h, a volume of 50 μL of media containing the new compounds of different concentrations was added to the well. The drug-treated cells were incubated for 72 h at 37° C. with 5% CO2. A volume of 30 μL media containing MTT was added into each well, and incubated for 2-4 h at 37° C. with 5% CO2. MTT would be reduced to formazan in living cells.
(§7) Following this, the media were removed carefully by aspiration and 200 μL DMSO was added into each well. The DMSO is used to dissolve the insoluble formazan into a purple solution. The 96-well microplate with DMSO was then shaken for 10 min at room temperature. Final results were obtained by using a microplate reader to examine the absorbance at 562 nm. Analysis of the data was carried out using Origin™.
(§8) A2780 and A2780cis cell lines were cultured in RPM11640 with L-glutamine supplemented with 10% FBS and 1% PS. SKOV-3, MDA-MB-231, A549, and HEK293 cell line were cultured in DMEM 1 g/L glucose, with L-glutamine & sodium pyruvate supplemented with 10% FBS and 1% PS. MET5A cell line was cultured in M199 supplemented with 10% FBS, 1% PS, insulin, 0.1% Trace Elements B, […] Hydrocortisone, and 4 ng/mL EGF. All cell lines were incubated at 37° C. under an atmosphere containing 5% CO2. Cells were passaged by trypsinization and split in a 1:5 ratio.

[2] = test system: A2780cis (cisplatin resistant) ovarian cancer cell line; assay: MTT cytotoxicity assay, A2780cis ovarian cancer cells; type: cell-based, human; conditions: for resistance factor RF = IC50(A2780cis)/IC50(A2780): ovarian cancer cell lines, FIG. 14B
Text: as §1
(§9) Cisplatin and phenanthriplatin were used as controls. Cancer and normal cells were treated for 72 h and cell viability was assessed.
as §2, §3, §4, §5, §6, §7, §8

[3] = test system: Human Cancer Cells; conditions: reportedly, ref. (9); cited from earlier work
[4] = test system: non-cancerous kidney cell line HEK293; assay: Cytotoxicity screening against normal cells, HEK293; type: cell-based, human; conditions: 72 h, compared with phenanthriplatin
Procedure: as §9, §6, §7
(§10) A2780 and A2780cis cell lines were cultured in RPM11640 with L-glutamine supplemented with 10% FBS and 1% PS. SKOV-3, MDA-MB-231, A549, and HEK293 cell line were cultured in DMEM 1 g/L glucose, with L-glutamine & sodium pyruvate supplemented with 10% FBS and 1% PS. […]

[5] = test system: non-cancerous mesothelial cell line MET-5A; assay: Cytotoxicity screening against normal cells, MET-5A; type: cell-based, human; conditions: 72 h, compared with phenanthriplatin
Procedure: as §9, §6, §7, §10

[6] = Homo sapiens, A2780, preliminary cytotoxicity data
[7] = Homo sapiens, A2780cis, preliminary cytotoxicity data, MTT, 72 h, read-out: A2780cis IC50
[8] = preliminary cytotoxicity data, MTT, 72 h, read-out: A2780cis IC50
[9] = further screening (FIG. 14A), treated for 72 h, read-out: IC50 in A2780cis cisplatin-resistant ovarian cancer cell line

Nc1cc(C(F)(F)F)cc2c1ncc1ccccc12 [Complex 2-CF3, 2-trifluoromethyl-4-aminophenanthridine] gave an IC50 [1, 6] of 19.3 ± 12.1 µM and an IC50 [2, 7] of over 100 µM.

Molecule CC(C)(C)c1cc(N)c2ncc3ccccc3c2c1 [Complex 2-tBu, 2-tert-butyl-4-aminophenanthridine] has an IC50 [1, 6] of 8.38 ± 2.83 µM and an IC50 [2, 7] of 20.5 ± 6.07 µM.

For CC(=O)C=C(C)Nc1cc(C(C)(C)C)cc2c1ncc1ccccc12 [Complex L1, 4-(2′-tert-butyl-4-aminophenanthridinyl)-3-penten-2-one], the “in vitro cytotoxic activity in the absence of platinum(II)” value [1] was “lack of activity”.

In the case of CC(=O)C=C(C)Nc1cc(C(F)(F)F)cc2c1ncc1ccccc12 [Complex L2, 4-(2′-trifluoromethyl-4′-aminophenanthridinyl)-3-penten-2-one], the “in vitro cytotoxic activity in the absence of platinum(II)” value [1] is reported as “lack of activity”, the IC50 ([1]; preliminary cytotoxicity data) is reported as 7.22 ± 2.07 µM and the IC50 [2, 8] is reported as 20.1 ± 7.17 µM.

With N.N.[Cl][Pt][Cl] [cisplatin, cis-diaminedichloroplatinum(II), reference compound] the IC50 ([1]; preliminary cytotoxicity data) was 0.375 ± 0.217 µM, the IC50 [2, 9] was 32.9 ± 8.82 µM and the “resistance factor RF = IC50(A2780cis)/IC50(A2780)” value [2] was 23. The IC50 [2, 8] was 7.76 ± 0.497 µM.

With N.N.O=[N+]([O-])[O-].[Cl][Pt+].c1ccc2c(c1)cnc1ccccc12 [phenanthriplatin, [c/s-R(NH3)2(phenanthridine)Cl][NO3], reference compound] the “resistance factor RF = IC50(A2780cis)/IC50(A2780)” value [2] was 2.7.

In the case of N.N.O=[N+]([O-])[O-].[Cl][Pt+].c1ccncc1 [pyriplatin, [c/s-R(NH3)2(pyridine)Cl][NO3]], the “potency relative to cisplatin or oxaliplatin” value [3] is given as “ten-fold less potent”.

For “[Pt(CF3-phenanthridinenacac)Cl] [Complex 2]”, the “toxicity against normal cells (HEK293)” value [4] was “less toxic than phenanthriplatin”, the “toxicity against normal cells (MET-5A)” value [5] was “less toxic than phenanthriplatin” and the IC50 ([1]; preliminary cytotoxicity data) was 0.341 ± 0.112 µM. For the same molecule, the “IC50 times lower than that of cisplatin” value ([2]; A2780cis, 72 h) was 58 times, the IC50 [2, 9] was 0.55 ± 0.22 µM and the “resistance factor RF = IC50(A2780cis)/IC50(A2780)” value [2] was 1.1. The IC50 [2, 8] was 0.955 ± 0.106 µM.

In the case of “[Pt(tBu-phenanthridine-nacac)Cl] [Complex 1]”, the IC50 ([1]; preliminary cytotoxicity data) is reported as 2.81 ± 0.168 µM and the IC50 [2, 8] is reported as 4.57 ± 1.41 µM.
